Data as given in patent US20040044006A1, “Methods of use of quinolone compounds against pneumococcal and haemophilus bacteria” (priority 1999, published 2004).
Like-named read-outs stand apart in the source and are kept apart here.

Tests used:
[1] = test system: quinolone-resistant Haemophilus influenzae strains; assay: Microdilution MIC determination in HTM for quinolone-resistant Haemophilus influenzae strains; assay type: cell-based; details: 9 quinolone-resistant Haemophilus influenzae strains
How it was run: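 Broth microdilution in HTM, inoculum from 24 h chocolate agar colonies by direct suspension to a final 3-8×10^5 CFU/ml. Incubated in ambient air at 35° C. for 20-24 hours; MIC read as the lowest concentration with no growth.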

[2] = test system: quinolone resistant pneumococci; assay: Determination of efflux mechanism: MICs in the presence and absence of reserpine; assay type: cell-based, Streptococcus pneumoniae
Experimental: MICs were determined in the presence and absence of 10 μg/ml of reserpine (Sigma Chemicals, St. Louis, Mo.) as known in the art.
MICs were determined in the presence and absence of […] of reserpine (Sigma Chemicals, St. Louis, Mo., USA) as described previously (Brenwald, et al., Antimicrob. Agents Chemother. 42:2039-2035, 1998 and Davies, et al., Antimicrob. Agents Chemother. 43:1177-1182S, 1999).

[3] = test system: pneumococcal strains; assay: Microbroth dilution MICs of strains tested by time-kill and PAE; assay type: cell-based; details: Streptococcus pneumoniae, read-out: Microdilution MIC
How it was run: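 S. pneumoniae ATCC 49619 served as control in each run. For the 12 time-kill and 6 PAE strains, MICs came from NCCLS microbroth dilution using cation-adjusted Mueller-Hinton broth plus 5% lysed defibrinated horse blood.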

[4] = test system: pneumococci with ciprofloxacin MICs ≧8 μg/ml; assay: Quinolone agar dilution MICs of 28 ciprofloxacin resistant pneumococcal strains, correlated with QRDR mutations; assay type: cell-based, Streptococcus pneumoniae
How it was run: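 Agar dilution MICs on Mueller-Hinton agar with 5% sheep blood, S. pneumoniae ATCC 49619 as QC in each run. Strains, from the US and several other countries, were also typed for parC, gyrA, parE and gyrB mutations and for efflux.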

[5] = agar dilution, 28 strains with ciprofloxacin MICs ≧8.0 μg/ml

C[C@@H]1CN(c2c(F)c(N)c3c(=O)c(C(=O)O)cn(C4CC4)c3c2F)C[C@H](C)N1 [Sparfloxacin, sparfloxacin]
8 µg/mL: MIC50 ([4]; Streptococcus pneumoniae) | MIC ([4]; Streptococcus pneumoniae, strain 6, ParC S79-Y, ParE I460-V, GyrA E85-K, GyrB None) | MIC ([4]; Streptococcus pneumoniae, strain 6, ParC S79-Y, ParE I460-V, GyrA E87-K, GyrB None) | MIC ([4]; Streptococcus pneumoniae, strain 13, ParC S79-F, ParE I460-V, GyrA None, GyrB E474-K) | MIC ([4]; Streptococcus pneumoniae, strain 14, ParC S79-F, ParE I460-V, GyrA S81-F, GyrB None) | MIC ([4]; Streptococcus pneumoniae, strain 14, ParC S79-F, ParE I460-V, GyrA S83-F, GyrB None) | MIC ([4]; Streptococcus pneumoniae, strain 15, ParC 79-F, ParE I460-V, GyrA S83-F, GyrB None) | MIC ([4]; Streptococcus pneumoniae, strain 15, ParC S79-F, ParE I460-V, GyrA S81-F, GyrB None) | MIC ([4]; Streptococcus pneumoniae, strain 16, ParC S79-F, ParE I460-V, GyrA S81-F, GyrB None) | MIC ([4]; Streptococcus pneumoniae, strain 16, ParC S79-F, ParE I460-V, GyrA S83-F, GyrB None) | MIC ([4]; Streptococcus pneumoniae, strain 17, ParC D83-N, ParE None, GyrA S81-F, GyrB None) | MIC ([4]; Streptococcus pneumoniae, strain 17, ParC D83-N, ParE None, GyrA S83-F, GyrB None) | MIC ([4]; Streptococcus pneumoniae, strain 18, ParC S79-F, ParE I460-V, GyrA S81-F, GyrB None) | MIC ([4]; Streptococcus pneumoniae, strain 18, ParC S79-F, ParE I460-V, GyrA S83-F, GyrB None) | MIC ([4]; Streptococcus pneumoniae, strain 19, ParC S79-F, ParE I460-V, GyrA S81-F, GyrB None) | MIC ([4]; Streptococcus pneumoniae, strain 19, ParC S79-F, ParE I460-V, GyrA S83-F, GyrB None) | MIC ([4]; Streptococcus pneumoniae, strain 20, ParC S79-F, ParE I460-V, GyrA E85-K, GyrB None) | MIC ([4]; Streptococcus pneumoniae, strain 20, ParC S79-F, ParE I460-V, GyrA E87-K, GyrB None) | MIC ([4]; Streptococcus pneumoniae, strain 21, ParC S79-F, ParE I460-V, GyrA S81-F, GyrB None) | MIC ([4]; Streptococcus pneumoniae, strain 21, ParC S79-F, ParE I460-V, GyrA S83-F, GyrB None) | MIC ([4]; Streptococcus pneumoniae, strain 22, ParC S79-F, ParE I460-V, GyrA S81-Y, GyrB None) | MIC ([4]; Streptococcus pneumoniae, strain 22, ParC S79-F, ParE I460-V, GyrA S83-Y, GyrB None) | MIC ([4]; Streptococcus pneumoniae, strain 23, ParC S79-Y, ParE None, GyrA S81-A, GyrB None) | MIC ([4]; Streptococcus pneumoniae, strain 23, ParC S79-Y, ParE None, GyrA S83-A, GyrB None)
2 µg/mL: MIC ([4]; Streptococcus pneumoniae, strain 9, ParC S79-Y, ParE None, GyrA None, GyrB None)
≥ 1 µg/mL: MIC ([4]; Streptococcus pneumoniae, read-out: MICs in strains with three or four QRDR mutations, 21 strains, bound holds in all 21 (ciprofloxacin, levofloxacin, sparfloxacin), 20 (grepafloxacin), 11 (trovafloxacin), 19 (gemifloxacin))
0.125 µg/mL: MIC ([3]; strain 1 (S) penicillin susceptible)
0.25 to 8.0 µg/mL: MIC Range [1]
32 µg/mL: MIC ([3]; strain 3 (S) penicillin susceptible, quinolone-resistant)
2 ×: lower MICs in the presence of reserpine, fold range over affected strains ([2]; 28 quinolone resistant strains, 10 μg/ml reserpine)
> 1 µg/mL: MIC ([4]; Streptococcus pneumoniae, read-out: MICs in strains with three or four QRDR mutations, 20 strains, bound holds in all 20 (ciprofloxacin, levofloxacin, sparfloxacin), 19 (grepafloxacin), 10 (trovafloxacin), 18 (gemifloxacin))
1 µg/mL: MIC50 [1] | MIC ([4]; Streptococcus pneumoniae, strain 3, ParC D83-N, ParE I460-V, GyrA S81-F, GyrB None) | MIC ([4]; Streptococcus pneumoniae, strain 3, ParC D83-N, ParE I460-V, GyrA S83-F, GyrB None) | MIC ([4]; Streptococcus pneumoniae, strain 4, ParC S79-F, ParE I460-V, GyrA S81-F, GyrB None) | MIC ([4]; Streptococcus pneumoniae, strain 4, ParC S79-F, ParE I460-V, GyrA S83-F, GyrB None) | MIC ([4]; Streptococcus pneumoniae, strain 5, ParC R95-C, ParE D435-N, GyrA S81-F, GyrB None) | MIC ([4]; Streptococcus pneumoniae, strain 5, ParC R95-C, ParE D435-N, GyrA S83-F, GyrB None) | MIC ([4]; Streptococcus pneumoniae, strain 7, ParC None, ParE I460-V, GyrA None, GyrB None) | MIC ([4]; Streptococcus pneumoniae, strain 8, ParC S79-Y, ParE None, GyrA None, GyrB None) | MIC ([4]; Streptococcus pneumoniae, strain 12, ParC S79-F, ParE I460-V, GyrA None, GyrB D435-N)
0.5 µg/mL: MIC ([3]; strain 5 (I) penicillin intermediate) | MIC ([3]; strain 9 (R) penicillin resistant) | MIC ([3]; strain 12 (R) penicillin resistant)
one: number of strains with lower MICs in the presence of reserpine ([2]; of 28 quinolone resistant strains, 10 μg/ml reserpine)
> 32 µg/mL: MIC ([4]; Streptococcus pneumoniae, strain 26, ParC S79-F, ParE None, GyrA S81-Y, GyrB None) | MIC ([4]; Streptococcus pneumoniae, strain 26, ParC S79-F, ParE None, GyrA S83-Y, GyrB None) | MIC ([4]; Streptococcus pneumoniae, strain 27, ParC S79-Y, ParE I460-V, GyrA S81-F, GyrB None) | MIC ([4]; Streptococcus pneumoniae, strain 27, ParC S79-Y, ParE I460-V, GyrA S83-F, GyrB None) | MIC ([4]; Streptococcus pneumoniae, strain 28, ParC D83-G N91-D, ParE None, GyrA S81-F S114-G, GyrB None) | MIC ([4]; Streptococcus pneumoniae, strain 28, ParC cell empty, ParE None, GyrA S83-F and S116-G, GyrB None)
16.0 µg/mL: MIC90 [4, 5]
0.25 µg/mL: MIC ([3]; strain 2 (S) penicillin susceptible) | MIC ([3]; strain 6 (I) penicillin intermediate) | MIC ([3]; strain 7 (I) penicillin intermediate) | MIC ([3]; strain 8 (I) penicillin intermediate) | MIC ([3]; strain 10 (I)) | MIC ([3]; strain 11 (R) penicillin resistant)
4 µg/mL: MIC ([4]; Streptococcus pneumoniae, strain 1, ParC S79-F, ParE I460-V, GyrA S81-F, GyrB None) | MIC ([4]; Streptococcus pneumoniae, strain 1, ParC S79-F, ParE I460-V, GyrA S83-F, GyrB None) | MIC ([4]; Streptococcus pneumoniae, strain 10, ParC S79-F, ParE I460-V, GyrA S81-C, GyrB None) | MIC ([4]; Streptococcus pneumoniae, strain 10, ParC S79-F, ParE I460-V, GyrA S83-C, GyrB None) | MIC ([4]; Streptococcus pneumoniae, strain 11, ParC S79-F, ParE I460-V, GyrA S81-F, GyrB None) | MIC ([4]; Streptococcus pneumoniae, strain 11, ParC S79-F, ParE I460-V, GyrA S83-F, GyrB None)
2X: Number of dilutions decrease after incubation with reserpine ([2]; strain 5) | lower MIC in the presence of reserpine (efflux mechanism) ([2]; strain 5, 10 μg/ml reserpine)
16 µg/mL: MIC ([3]; strain 4 (S) penicillin susceptible, quinolone-resistant) | MIC90 ([4]; Streptococcus pneumoniae)
8.0 µg/mL: MIC50 [4, 5]
